Results on 3 molecules are retold here after patent publication US6548496B2, “Substituted 3-cyano-[1.7], [1.5], and [1.8] naphthyridine inhibitors of tyrosine kinases” (American Cyanamid Company, priority 1999, dated 2003).

A value given as a limit tells only on which side of the number the result lay.

In assay [1] the test system is MDA435. Put plainly: Inhibition of cancer cell growth by cell number, MDA435. Format: cell-based, Human. To be noted: 48 hours exposure, Sulforhodamine B. How it is done:
(§1) Human tumor cell lines were plated in 96-well plates (250 μl/well, 1-6×10^4 cells/ml) in RPMI 1640 medium, containing 5% FBS (Fetal Bovine Serum). […] After 48 hours exposure to test compounds, cells were fixed with trichloroacetic acid, and stained with Sulforhodamine B. After washing with trichloroacetic acid, bound dye was solubilized in 10 mM Tris base and optical density was determined using a plate reader. Under conditions of the assay the optical density is proportional to the number of cells in the well. IC50s (concentrations causing 50% inhibition of cell growth) were determined from the growth inhibition plots. The test procedure is described in details by Philip Skehan et. at J. Natl. Canc. Inst., 82, 1107-1112 (1990). […] Information about some of the cell lines used in these test procedures is available from the American […]: Cell Lines and Hybridomas, 1994 Reference Guide, 8th Edition. The Her2Neu cell line is a 3T3 line that has bbeen transfected with Her2 receptor kinase.

For assay [2], the system named is A431. Briefly: Inhibition of cancer cell growth by cell number, A431. To be noted: 48 hours exposure, Sulforhodamine B. The class given is cell-based, Human. The method, then: as §1
The test system of assay [3] is SKBR3. Put plainly: Inhibition of cancer cell growth by cell number, SKBR3. Format: cell-based, Human. To be noted: 48 hours exposure, Sulforhodamine B. The method, then: as §1
For assay [4], the system named is A2780S. Briefly: Inhibition of cancer cell growth by cell number, A2780S. The class given is cell-based, Human. To be noted: 48 hours exposure, Sulforhodamine B. How it is done:
as §1

Assay [5] relates to A2780DDP. Put plainly: Inhibition of cancer cell growth by cell number, A2780DDP. Format: cell-based, Human. To be noted: 48 hours exposure, Sulforhodamine B. How it is done:
as §1

Assay [6] relates to SW620. Put plainly: Inhibition of cancer cell growth by cell number, SW620. The class given is cell-based, Human. To be noted: 48 hours exposure, Sulforhodamine B. How it is done: as §1
The subject of assay [7] is LOX. Briefly: Inhibition of cancer cell growth by cell number, LOX. To be noted: 48 hours exposure, Sulforhodamine B. Format: cell-based, Human. The method, then:
as §1

For assay [8], the target named is T1, recombinant human MEK 1 (MAPKK) / human ERK2 (MAPK) (Homo sapiens, UniProt P28482+Q02750).
T1 construct: The recombinant enzymes used were prepared as GST fusion proteins of human ERK 2 and human MEK 1
Put plainly: Mitogen Activated Protein Kinase (MAPK) coupled Mek-Erk assay. The class given is biochemical. To be noted: coupled MEK 1/ERK2 assay, 33P ATP; read-out: IC50, inhibition of Mitogen Activated Protein Kinase (Mek-Erk). The method, then:
To evaluate inhibitors of the MAP (mitogen activated protein) kinase a two component coupled standard pharmacological test procedure, which measures phosphorylation of a serine/threonine residue in an appropriate sequence in the substrate in the presence and absence of a putative inhibitor, was used. Recombinant human MEK 1 (MAPKK) was first used to activate recombinant human ERK2 (MAPK) and the activated MAPK (ERK) was incubated with substrate (MEP peptide or MYC peptide) in the presence of ATP, Mg^+2 and radiolabeled ^33P ATP. The phosphorylated peptide was captured on a P 81 phosphocellulose filter (paper filter or embedded in microtiter plate) washed and counted by scintillation methods. […]
The reaction was run as follows in 50 mM Tris kinase buffer, pH 7.4 in a reaction volume of 50 ul. […] The filters or MTP were briefly air dried before addition of scintillant and samples were counted in the appropriate scintillation counter set up for reading ^33P isotope. […]
The raw data was captured as cpm Sample replicates were averaged and corrected for background count. Mean cpm data was tabulated by group and % inhibition by a test compound was calculated as (corrected cpm control-corrected. cpm sample/control)×100=% inhibition. […]

The target in assay [9] is T2, epidermal growth factor receptor kinase (EGF-R), His-tagged cytoplasmic domain of EGFR (Homo sapiens, UniProt P00533).
T2 construct: containing the EGFR cDNA encoding amino acids 645-1186 preceded by Met-Ala-(His)6; made in house; host or cells: Sf9 insect cells, recombinant baculovirus vHcEGFR52
Put plainly: Inhibition of EGF-R kinase using recombinant enzyme. To be noted: RR-SRC peptide substrate, 33P-ATP, 90 min at room temperature. Format: biochemical. The method, then: Representative test compounds were evaluated for their ability to inhibit the phosphorylation of the tyrosine residue of a peptide substrate catalyzed by the enzyme epidermal growth factor receptor kinase. The peptide substrate (RR-SRC) has the sequence arg-arg-leu-ile-glu-asp-ala-glu-tyr-ala-ala-arg-gly. The enzyme used in this assay is the His-tagged cytoplasmic domain of EGFR. A recombinant baculovirus (vHcEGFR52) was constructed containing the EGFR cDNA encoding amino acids 645-1186 preceded by Met-Ala-(His)6. Sf9 cells in 100 mm plates were infected at an moi of 10 pfu/cell and cells were harvested 48 h post infection. A cytoplasmic extract was prepared using 1% Triton X-100 and applied to Ni-NTA column. After washing the column with 20 mM imidazole, HcEGFR was eluted with 250 mM imidazole (in 50 mM Na2HPO4, pH 8.0, 300 mM NaCl). […]
For the enzyme reaction, 10 uL of each inhibitor (at various concentrations) were added to each well of a 96-well plate. […] The filter discs were washed 2× with 0.5% phosphoric acid and radioactivity was measured using a liquid scintillation counter.
The inhibition data for representative compounds of the invention are shown below in TABLE 1. […] The % inhibition of the test compound was determined for at least three different concentrations and the IC50 value was evaluated from the dose response curve. The % inhibition was evaluated with the following formula: […]

T2 sequence (P00533 669-1210): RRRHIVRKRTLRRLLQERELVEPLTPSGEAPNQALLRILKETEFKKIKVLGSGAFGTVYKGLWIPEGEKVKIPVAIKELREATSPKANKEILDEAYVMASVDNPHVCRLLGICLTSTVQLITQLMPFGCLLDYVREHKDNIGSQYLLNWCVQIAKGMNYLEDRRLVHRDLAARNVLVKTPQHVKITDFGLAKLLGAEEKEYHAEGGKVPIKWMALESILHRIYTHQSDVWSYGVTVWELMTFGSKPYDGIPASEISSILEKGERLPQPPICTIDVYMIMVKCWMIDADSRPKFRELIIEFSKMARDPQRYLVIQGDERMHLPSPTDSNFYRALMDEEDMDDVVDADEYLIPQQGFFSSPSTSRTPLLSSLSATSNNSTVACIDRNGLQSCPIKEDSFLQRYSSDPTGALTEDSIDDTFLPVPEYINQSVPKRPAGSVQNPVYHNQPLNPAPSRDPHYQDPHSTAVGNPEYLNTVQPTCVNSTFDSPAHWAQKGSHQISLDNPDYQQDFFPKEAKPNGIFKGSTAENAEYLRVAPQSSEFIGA
T1 sequence (P28482 2-360): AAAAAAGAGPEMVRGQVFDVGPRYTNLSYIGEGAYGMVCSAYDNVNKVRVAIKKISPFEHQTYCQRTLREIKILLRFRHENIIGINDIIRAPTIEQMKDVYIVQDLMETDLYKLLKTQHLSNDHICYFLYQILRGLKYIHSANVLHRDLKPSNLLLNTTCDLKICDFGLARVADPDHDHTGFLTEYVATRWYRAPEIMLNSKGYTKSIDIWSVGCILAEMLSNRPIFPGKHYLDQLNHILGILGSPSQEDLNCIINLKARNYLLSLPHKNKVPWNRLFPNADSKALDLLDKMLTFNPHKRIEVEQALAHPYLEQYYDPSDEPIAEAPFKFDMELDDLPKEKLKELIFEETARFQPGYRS
T1 sequence (Q02750 whole entry, the tested form may be a part): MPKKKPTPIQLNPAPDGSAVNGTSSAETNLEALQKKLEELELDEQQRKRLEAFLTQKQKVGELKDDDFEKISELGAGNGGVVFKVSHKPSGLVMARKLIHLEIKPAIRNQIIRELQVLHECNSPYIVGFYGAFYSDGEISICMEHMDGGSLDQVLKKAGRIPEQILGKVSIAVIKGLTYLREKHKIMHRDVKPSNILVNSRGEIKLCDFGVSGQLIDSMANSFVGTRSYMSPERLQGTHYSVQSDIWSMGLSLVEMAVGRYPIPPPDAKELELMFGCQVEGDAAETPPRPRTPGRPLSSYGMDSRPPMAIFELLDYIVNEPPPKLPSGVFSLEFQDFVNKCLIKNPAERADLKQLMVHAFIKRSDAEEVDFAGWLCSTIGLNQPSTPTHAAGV

Take “1-[4-(3-Bromo-phenylamino)-3-cyano-[1,7]naphthyridin-6-yl]-4-diethylamino-pyridinium Fluoride [Example 65]”: in assay [1], the “IC50, inhibition of cell growth, MDA435” value was found to be 47 µg/mL. Besides, in [2], the “IC50, inhibition of cell growth, A431” value is 59 µg/mL. Also, the “IC50, inhibition of cell growth, SKBR3” value in assay [3] is 41 µg/mL. In [4], the “IC50, inhibition of cell growth, A2780S” value worked out at 31 µg/mL. For the same molecule, the “IC50, inhibition of cell growth, A2780DDP” value in assay [5] was found to be 52 µg/mL. Also, the “IC50, inhibition of cell growth, SW620” value in [6] came out at 42 µg/mL. Moreover, the “IC50, inhibition of cell growth, LOX” value in assay [7] turned out to be 56 µg/mL.

Broadly, the IC50 is the concentration that inhibits the measured activity by half. For `N#Cc1cnc2ncc([N+](=O)[O-])cc2c1Nc1cccc(Br)c1` [Example 21, 4-(3-Bromo-phenylamino)-6-nitro-[1,8]naphthyridine-3-carbonitrile], the IC50 in assay [8] came out at 10 µM.

Take `CC#CC(=O)Nc1cnc2ncc(C#N)c(Nc3ccc(F)c(Cl)c3)c2c1` [Example 27, But-2-ynoic acid [5-(3-chloro-4-fluoro-phenylamino)-6-cyano-[1,8]naphthyridin-3-yl]-amide]: the 50% inhibitory concentration (IC50) in assay [9] is over 0.1 µM.
